# Like-named read-outs stand apart in the source and are kept apart here.
# How the values were obtained:
# [1] = test system: HBV replication in Huh7, HepAD38, HepG2, and HepG2.2.15 cells; format: cell-based, hepatitis B virus
# HBV cccDNA = test: Chromatin immunoprecipitation (ChIP) in HBV-infected HepG2-hNTCP-C9-PIN4 KD cells; format: cell-based, hepatitis B virus; conditions: 20 μM Juglone or PiB, 30 μM ATRA, 6,7,4′-THIF or KPT6566, 40 μM EGCG, vs solvent
# Description: Chromatin immunoprecipitation (ChIP) was performed in HBV-infected HepG2-hNTCP-C9 PIN1 or PIN4 KD cells to determine the comparative effects of these parvulins on cccDNA (Figure 11D). The chromatins were prepared and immunoprecipitated with IgG or anti-PIN1, HBc, PIN4, acetylated H3 (anti-AcH3), RNA polymerase-II (anti-RNA Pol-II), and histone H3 antibodies and furthermore analyzed by semiquantitative PCR (GeneAmp PCR 2700, Applied Biosystems; [Bichko et al., 1985]; [Saeed et al., 2019], [2021]; [Piracha et al., 2020]). In contrast to endogenous PIN1, the endogenous PIN4 was recruited to HBV cccDNA. Of note, upon PIN1 KD, the recruitment of HBc protein to the cccDNA remains unchanged.
# (A–F) HepG2-hNTCP-C9-PIN4 KD cells were mock-infected (lane 1) or HBV infected (lanes 2–3) and treated with solvent (lane 2), or parvulin inhibitors (A) 20 μM Juglone, (B) 20 μM PiB, (C) 30 μM ATRA, (D) 30 μM 6,7,4′-THIF, (E) 30 μM KPT6566, and (F) 40 μM EGCG. The chromatin solutions and ChIP were performed in HBV-infected HepG2-hNTCP-C9-PIN4 KD cells, as described in the “Material and Methods” section and were subjected to immunoprecipitation with normal rabbit polyclonal IgG, anti-PIN1, anti-PIN4, anti-RNA Pol II, anti-acetyl H3, or anti-H3 antibodies. The immunoprecipitated chromatins were analyzed by PCR. The presented data are representative of three independent experiments.
# HBV cccDNA synthesis was examined using the protein-free Hirt cccDNA extraction method. Briefly, HBV-infected PIN1 or PIN4 KD cells at approximately 100% confluency were incubated for 10 days, lysed with 10 mM EDTA and 10 mM Tris–HCl [pH 7.5] containing 0.6% SDS-TE buffer, treated for 16 h by adding 5 M NaCl to the final concentration of 1 M, and precipitated by centrifugation for 30 min at 14,500 × g. The supernatants were subjected to multiple phenol extractions (two times) followed by cccDNA extraction via phenol/chloroform. The supernatant containing cccDNA was precipitated by ethanol and furthermore analyzed by Southern blotting. The HBV cccDNA ChIP was performed using cccDNA-specific primers and analyzed by PCR (GeneAmp 2,700, Applied Biosystems), as described previously ([Bichko et al., 1985]; [Piracha et al., 2018], [2020]; [Saeed et al., 2019], [2021]). From the clinical specimens, HBV cccDNA levels were examined, as described previously ([Zhang et al., 2017]), using 251F 5′-GAC TYG TGG TGG ACT TCT C-3′ and 1190R 5′-TCA GCA AAY ACT YGG CA-3′ set of primers.
# PIN1 = biological target: T1, PIN1 (Homo sapiens, UniProt Q13526); test: PIN1 expression by immunoblotting in HCC cells; format: cell-based; conditions: 30 μM ATRA, 72 h
# T1 construct: Since the endogenous PIN1 and PIN4 levels remained higher in HBV replicating and non-replicating HCC-derived cell lines; endogenous in cells; host or cells: Huh7, HepAD38, HepG2, HepG2.2.15 (human HCC cell lines)
# T1 sequence (Q13526 whole entry): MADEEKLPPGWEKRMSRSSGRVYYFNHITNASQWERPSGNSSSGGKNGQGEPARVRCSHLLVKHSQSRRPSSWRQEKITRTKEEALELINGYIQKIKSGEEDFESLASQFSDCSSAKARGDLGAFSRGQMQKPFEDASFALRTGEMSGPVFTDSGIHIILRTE
# PIN4 = PIN4 (Homo sapiens, UniProt Q9Y237); test: PIN4 expression by immunoblotting in HCC cells; format: cell-based; conditions: 30 μM ATRA, 72 h
# Sequence of PIN4 (Q9Y237 whole entry): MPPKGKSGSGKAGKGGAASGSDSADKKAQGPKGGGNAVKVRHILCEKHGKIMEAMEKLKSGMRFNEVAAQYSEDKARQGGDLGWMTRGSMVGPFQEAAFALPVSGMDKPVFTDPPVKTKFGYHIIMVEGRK
# [2] = 72 h, 20 μM Juglone or PiB, 30 μM ATRA, 6,7,4′-THIF or KPT-6566, 40 μM EGCG, vs solvent
Structure (SMILES),"HBV RNA levels / HBV transcription (Northern blotting) [1, 2]","HBc expression, core particle synthesis and HBV DNA levels [1, 2]",recruitments of endogenous PIN4 and HBc onto HBV cccDNA (HBV cccDNA),HBV RNA levels / HBV transcription (Northern blotting) [1],"HBc expression, core particle synthesis and HBV DNA levels [1]",expression level of PIN1 (PIN1),expression level of PIN4 (PIN4)
"O=c1c(-c2ccc(O)cc2)coc2cc(O)c(O)cc12 [6,7,4′-THIF, 6,7-dihydroxy-3-(4-hydroxyphenyl)-4H-chromen-4-one]",significantly aborted,significantly aborted,reduced,,,,
"O=C1C=CC(=O)c2c(O)cccc21 [Juglone, 5-hydroxyl-1,4-naphthoquinone]",significantly decreased,dramatically reduced,reduced,,,,
"CC1=C(/C=C/C(C)=C/C=C/C(C)=C/C(=O)O)C(C)(C)CCC1 [ATRA, All-trans-retinoic acid]",,,reduced,reduced,reduced,reduced,reduced
"CC(C)(C)c1ccc(S(=O)(=O)N=C2C=C(SCC(=O)O)C(=O)c3ccccc32)cc1 [KPT6566, 2-[[4-[[[4-(1,1-dimethylethyl)phenyl]sulfonyl]imino]-1,4-dihydro-1-oxo-2-naphthalenyl]thio] acetic acid]",restricted,restricted,reduced,,,,
"CCOC(=O)CN1C(=O)c2ccc3c4c(ccc(c24)C1=O)C(=O)N(CC(=O)OCC)C3=O [PiB, 1,3,6,8-tetrahydro-1,3,6,8-tetraoxo-benzo [lmn][3,8] phenanthroline-2,7-diacetic acid, 2,7-diethyl ester]",significantly reduced,notably abrogated,reduced,,,,
"O=C(O[C@@H]1Cc2c(O)cc(O)cc2O[C@@H]1c1cc(O)c(O)c(O)c1)c1cc(O)c(O)c(O)c1 [EGCG, Epigallocatechin gallate]",lower levels,reduced significantly,reduced,,,,

# — PMC9905731, “PIN1 and PIN4 inhibition via parvulin impeders Juglone, PiB, ATRA, 6,7,4′-THIF, KPT6566, and EGCG thwarted hepatitis B virus replication” (Frontiers in Microbiology, 2023)
